Like-named read-outs stand apart in the source and are kept apart here. Blank lines part the entries; values can stand above or below the compound they belong to.
System: PMA-differentiated THP-1 cells
Assay: IL-1β production in PMA-differentiated THP-1 cells stimulated with gramicidin (hTHP-1 assay containing 2% fetal bovine serum; Procedures 1 and 2)
Assay type: cell-based, human
Details: 2% fetal bovine serum
In short: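 THP-1 cells were differentiated with PMA (20 ng/ml, 16-18 h), detached, and plated at 50,000 cells/well in RPMI 1640 with 2% FBS. They were pre-treated with compound (0.0017–100 μM, 0.37% DMSO) for 1 h, then stimulated with gramicidin (5 μM) for 2 h. Supernatant IL-1β was measured by HTRF.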

[1] = Homo sapiens, THP-1, Table B2, class symbols, read-out: hTHP-1 IC50
[2] = Table B1, class symbols, read-out: Average IC50 of compounds in hTHP-1 assay: hTHP-1 IC50

Structure (SMILES): CC(C)n1cc(F)c(S(N)(=O)=NC(=O)Nc2c3c(nc4c2CCC4)CCC3)n1 (single isomer, unassigned) [Example 785, (R) or (S)-4-fluoro-N′-((1,2,3,5,6,7-hexahydrodicyclopenta [b,e]pyridin-8-yl)carbamoyl)-1-isopropyl-1H-pyrazole-3-sulfonimidamide]
IC50 (Table B4, class symbols, read-out: hTHP-1 IC50): 0.04 to 0.2 µM

Structure (SMILES): CCc1ncc(S(N)(=O)=NC(=O)Nc2c3c(nc4c2CC[C@H]4C)CCC3)s1 (single isomer, unassigned) [Example 674, (R) or (S)-2-ethyl-N′-(((R)-3-methyl-1,2,3,5,6,7-hexahydrodicyclopenta[b,e]pyridin-8-yl)carbamoyl) thiazole-5-sulfonimidamide]
IC50 (Table B3, hTHP-1 assay, class symbols, read-out: IC50): 0.2 to 1 µM

Structure (SMILES): Cc1c(C(F)(F)F)nc2c(c1NC(=O)N=S(N)(=O)c1cnc(C(C)(O)CO)s1)CCC2 (single isomer, unassigned) [Compound 605e, (R, S) or (S, S)-2-(1,2-Dihydroxypropan-2-yl)-N′-((3-methyl-2-(trifluoromethyl)-6,7-dihydro-5H-cyclopenta[b]pyridin-4-yl)carbamoyl) thiazole-5-sulfonimidamide]
IC50 (Table B2, class symbols, read-out: hTHP-1 IC50): 5 to 30 µM

Structure (SMILES): CC(C)(O)c1cc(F)c(S(N)(=O)=NC(=O)Nc2c3c(nc4c2CCC42CC2)CCC3)s1 (single isomer, unassigned) [Compound 101a, (S) or (R)-3-fluoro-5-(2-hydroxypropan-2-yl)-N′-((1′,5′,6′,7′-tetrahydro-2′H-spiro[cyclopropane-1,3′-dicyclopenta[b,e]pyridin]-8′-yl)carbamoyl)thiophene-2-sulfonimidamide]
IC50 [2]: 1 to 5 µM

Structure (SMILES): CC1CCc2c1nc1c(c2NC(=O)N=S(N)(=O)c2sc(C(C)(C)O)cc2F)CCC1 (single isomer, unassigned) [Compound 103bb, (R,S) or (R,R)-3-fluoro-5-(2-hydroxypropan-2-yl)-N′-((3-methyl-1,2,3,5,6,7-hexahydrodicyclo-penta[b,e]pyridin-8-yl)carbamoyl)thiophene-2-sulfonimidamide]
IC50 [2]: 0.2 to 1 µM

Results, then the compound that gave them:

IC50 [1]: 1 to 5 µM
Structure (SMILES): CC(C)n1nc(S(N)(=O)=NC(=O)Nc2c3c(nc4c2CCC4(C)C)CCC3)cc1CO (centres unmarked) [Compound 652, N′-((3,3-dimethyl-1,2,3,5,6,7-hexahydrodicyclopenta[b,e]pyridin-8-yl)carbamoyl)-5-(hydroxymethyl)-1-isopropyl-1H-pyrazole-3-sulfonimidamide]

IC50 (Homo sapiens, THP-1, Table B4, class symbols, read-out: hTHP-1 IC50): 0.2 to 1 µM
Structure (SMILES): C[C@@H]1CCc2c1nc1c(c2NC(=O)N=S(N)(=O)c2nn(-c3ccccc3)cc2F)CCC1 (single isomer, unassigned) [Example 791, (R) or (S)-4-fluoro-N′-(((R)-3-methyl-1,2,3,5,6,7-hexahydrodicyclopenta[b,e]pyridin-8-yl)carbamoyl)-1-phenyl-1H-pyrazole-3-sulfonimidamide]

IC50 [1]: 1 to 5 µM
Structure (SMILES): Cc1c(C(C)C)nc2c(c1NC(=O)N=S(N)(=O)c1ccn(C(C)C)n1)CCC2 (single isomer, unassigned) [Compound 644b, (R) or (S)-1-Isopropyl-N′-((2-isopropyl-3-methyl-6,7-dihydro-5H-cyclopenta[b]pyridin-4-yl)carbamoyl)-1H-pyrazole-3-sulfonimidamide]

IC50 (Homo sapiens, THP-1, Table B1, class symbols, read-out: Average IC50 of compounds in hTHP-1 assay: hTHP-1 IC50): 5 to 30 µM
Structure (SMILES): Cc1nc2c(c(NC(=O)N=S(N)(=O)c3cnc(C(C)(C)O)s3)c1C(C)C)CCC2 (single isomer, unassigned) [Compound 116b, (R) or (S)-2-(2-hydroxypropan-2-yl)-N′-((3-isopropyl-2-methyl-6,7-dihydro-5H-cyclopenta[b]pyridin-4-yl)carbamoyl)thiazole-5-sulfonimidamide]

IC50 (Homo sapiens, THP-1, Table B3, hTHP-1 assay, class symbols, read-out: IC50): 0.2 to 1 µM
Structure (SMILES): CC(C)(O)c1cc(F)c(S(N)(=O)=NC(=O)Nc2c3c(nc(C4CC4)c2C2CC2)CCC3)s1 (centres unmarked) [Example 570, N′-((2,3-dicyclopropyl-6,7-dihydro-5H-cyclopenta[b]pyridin-4-yl)calbamoyl)-3-fluoro-5-(2-hydroxypropan-2-yl)thiophene-2-sulfonimidamide]

IC50 (Homo sapiens, THP-1, Table B2, numeric bounds, read-out: hTHP-1 IC50): > 30 µM
Structure (SMILES): CC(C)(O)c1ncc(S(N)(=O)=NC(=O)Nc2c3c(nc4c2CCC4=O)CCC3)s1 (centres unmarked) [Compound 711]
